Test results from article PMC5340297 (Bioorganic & medicinal chemistry letters, 2016).

Assays:
[1] = target: T1, rM4 (Rattus norvegicus, UniProt P08485); test: Calcium mobilization assay with rM4/Gqi5-CHO cells, EC20 acetylcholine; type: cell-based; conditions: 9a vs 6
T1 sequence (P08485 1-478): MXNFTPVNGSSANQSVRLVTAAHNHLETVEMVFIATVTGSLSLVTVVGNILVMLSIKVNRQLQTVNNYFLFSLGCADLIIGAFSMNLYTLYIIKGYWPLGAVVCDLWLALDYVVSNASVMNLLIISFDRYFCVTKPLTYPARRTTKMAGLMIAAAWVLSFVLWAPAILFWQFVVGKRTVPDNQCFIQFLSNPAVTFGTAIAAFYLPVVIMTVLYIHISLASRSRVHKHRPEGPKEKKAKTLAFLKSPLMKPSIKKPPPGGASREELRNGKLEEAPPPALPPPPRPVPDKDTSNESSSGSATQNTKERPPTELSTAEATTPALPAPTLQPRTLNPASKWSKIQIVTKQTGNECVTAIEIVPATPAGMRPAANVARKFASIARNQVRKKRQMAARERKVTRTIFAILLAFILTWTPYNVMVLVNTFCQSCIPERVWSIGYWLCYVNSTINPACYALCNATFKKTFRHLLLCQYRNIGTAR

[2] = Rat brain:plasma partition coefficients; type: in vivo; conditions: 0.25 hr after IV cassette dose (0.20-0.25 mg/kg), male SD rat, n=1
[3] = target: T2, 5-HT3 (Homo sapiens, UniProt P46098); test: Off-target full CRC, 5-HT3; type: binding
T2 sequence (P46098 24-478): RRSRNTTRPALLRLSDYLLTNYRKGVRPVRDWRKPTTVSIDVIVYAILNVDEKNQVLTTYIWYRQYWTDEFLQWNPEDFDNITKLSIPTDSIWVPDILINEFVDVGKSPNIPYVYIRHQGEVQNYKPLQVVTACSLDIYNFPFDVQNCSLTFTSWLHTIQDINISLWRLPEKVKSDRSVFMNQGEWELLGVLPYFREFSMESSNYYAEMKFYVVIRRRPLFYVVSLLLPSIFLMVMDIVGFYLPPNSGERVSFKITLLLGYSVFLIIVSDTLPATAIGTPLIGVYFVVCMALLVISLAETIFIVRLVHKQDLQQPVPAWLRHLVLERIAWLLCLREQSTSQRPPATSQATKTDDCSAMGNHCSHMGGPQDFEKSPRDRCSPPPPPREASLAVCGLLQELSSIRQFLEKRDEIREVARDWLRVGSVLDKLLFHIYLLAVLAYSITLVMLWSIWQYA

[4] = tested on: 68 GPCRs, ion channels and transporter; test: Eurofin Lead Profiling radioligand binding panel; conditions: 10 μM
[5] = target: hCav1 2 (Homo sapiens, UniProt Q13936); test: Off-target full CRC, hCav1 2; type: binding
[6] = tested on: human M1-3,5; test: Muscarinic subtype selectivity, human M1-3,5; type: cell-based; conditions: read-out: EC50 at human M1-3,5; no activity
[7] = tested on: rat M1-3,5; test: Muscarinic subtype selectivity, rat M1-3,5; type: cell-based; conditions: read-out: EC50 at rat M1-3,5; no activity
[8] = target: SERT (Homo sapiens, UniProt P31645); test: Off-target full CRC, SERT; type: binding
SERT, sequence (P31645 whole entry, species assumed): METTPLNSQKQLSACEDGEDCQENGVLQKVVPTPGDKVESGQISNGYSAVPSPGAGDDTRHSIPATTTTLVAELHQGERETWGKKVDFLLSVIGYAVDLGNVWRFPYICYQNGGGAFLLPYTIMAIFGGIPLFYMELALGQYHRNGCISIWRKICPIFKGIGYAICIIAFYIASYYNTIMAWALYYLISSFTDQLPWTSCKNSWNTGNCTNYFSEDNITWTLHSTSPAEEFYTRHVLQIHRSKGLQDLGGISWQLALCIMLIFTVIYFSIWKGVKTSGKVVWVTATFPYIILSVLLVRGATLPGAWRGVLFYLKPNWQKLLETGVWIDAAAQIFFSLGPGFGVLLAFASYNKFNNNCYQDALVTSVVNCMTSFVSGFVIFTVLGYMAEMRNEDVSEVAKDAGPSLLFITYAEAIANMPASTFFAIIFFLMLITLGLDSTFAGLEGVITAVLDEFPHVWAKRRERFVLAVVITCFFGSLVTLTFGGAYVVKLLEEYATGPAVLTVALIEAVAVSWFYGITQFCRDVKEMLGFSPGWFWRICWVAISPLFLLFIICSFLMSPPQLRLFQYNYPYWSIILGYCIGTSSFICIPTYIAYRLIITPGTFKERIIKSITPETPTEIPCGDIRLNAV

[9] = In vitro clearance, human; conditions: predicted
[10] = target: Cytochrome P450 2D6 (Homo sapiens, UniProt P10635); test: Cytochrome P450 inhibition, 2D6; type: in vitro ADME
Cytochrome P450 2D6, sequence (P10635 whole entry): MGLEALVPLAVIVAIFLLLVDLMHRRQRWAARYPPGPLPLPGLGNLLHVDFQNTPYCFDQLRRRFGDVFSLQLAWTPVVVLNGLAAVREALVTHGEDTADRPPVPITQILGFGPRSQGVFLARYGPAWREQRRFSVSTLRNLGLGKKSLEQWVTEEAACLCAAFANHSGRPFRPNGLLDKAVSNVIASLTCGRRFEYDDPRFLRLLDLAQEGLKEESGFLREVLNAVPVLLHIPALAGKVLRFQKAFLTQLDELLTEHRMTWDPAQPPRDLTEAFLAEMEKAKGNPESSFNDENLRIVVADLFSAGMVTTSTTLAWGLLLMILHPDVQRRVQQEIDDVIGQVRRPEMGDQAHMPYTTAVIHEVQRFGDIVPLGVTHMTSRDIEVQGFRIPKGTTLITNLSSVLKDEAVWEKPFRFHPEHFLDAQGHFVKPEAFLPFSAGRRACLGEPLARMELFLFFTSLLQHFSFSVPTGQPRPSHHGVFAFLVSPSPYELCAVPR

[11] = target: DAT (Homo sapiens, UniProt Q01959); test: Off-target full CRC, DAT; type: binding
DAT, sequence (Q01959 whole entry, species assumed): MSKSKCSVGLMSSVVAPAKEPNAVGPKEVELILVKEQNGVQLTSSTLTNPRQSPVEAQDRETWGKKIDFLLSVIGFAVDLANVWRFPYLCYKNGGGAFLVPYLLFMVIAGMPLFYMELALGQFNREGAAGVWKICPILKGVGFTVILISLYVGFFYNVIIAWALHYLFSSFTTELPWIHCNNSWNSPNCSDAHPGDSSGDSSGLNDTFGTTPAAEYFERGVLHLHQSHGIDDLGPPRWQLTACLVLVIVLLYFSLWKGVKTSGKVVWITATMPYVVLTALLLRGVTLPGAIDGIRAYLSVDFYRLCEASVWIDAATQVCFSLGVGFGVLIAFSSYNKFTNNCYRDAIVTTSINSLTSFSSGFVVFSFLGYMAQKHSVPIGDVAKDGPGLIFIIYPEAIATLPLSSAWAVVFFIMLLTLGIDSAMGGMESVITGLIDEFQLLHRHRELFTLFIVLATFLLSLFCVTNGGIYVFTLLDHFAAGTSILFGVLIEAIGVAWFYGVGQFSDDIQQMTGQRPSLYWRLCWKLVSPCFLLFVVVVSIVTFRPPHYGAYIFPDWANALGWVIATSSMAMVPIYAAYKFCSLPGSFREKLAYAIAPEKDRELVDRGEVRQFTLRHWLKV

[12] = tested on: amphetamine-induced hyperlocomotion; conditions: rat, 0.75 mg/kg amphetamine s.c., n = 7-8 per dose group
[13] = In vitro clearance, rat; conditions: predicted
[14] = tested on: GABA; test: Off-target full CRC, GABA; type: binding
[15] = target: Ghrelin receptor (Homo sapiens, UniProt Q92847); test: Off-target full CRC, Ghrelin receptor; type: binding
Ghrelin receptor, sequence (Q92847 whole entry, species assumed): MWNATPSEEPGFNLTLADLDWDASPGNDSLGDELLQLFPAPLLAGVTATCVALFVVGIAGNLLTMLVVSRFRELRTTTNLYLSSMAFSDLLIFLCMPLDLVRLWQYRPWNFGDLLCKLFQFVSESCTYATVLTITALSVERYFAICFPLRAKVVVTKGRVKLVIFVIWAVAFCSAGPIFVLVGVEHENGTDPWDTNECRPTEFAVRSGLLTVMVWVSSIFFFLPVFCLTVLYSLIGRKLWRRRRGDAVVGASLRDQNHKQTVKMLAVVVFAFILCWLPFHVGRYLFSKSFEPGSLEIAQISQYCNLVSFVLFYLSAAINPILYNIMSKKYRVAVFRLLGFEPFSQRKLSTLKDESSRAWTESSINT

[16] = tested on: BDZ; test: Off-target full CRC, BDZ; type: binding
[17] = tested on: amphetamine-induced hyperlocomotion; conditions: cited from earlier work
[18] = tested on: M4; test: M4 PAM potency, 6 compared with 2; type: cell-based; conditions: 6 vs 2
[19] = Free fraction, 6 compared with 2; type: in vitro ADME; conditions: 6 vs 2

Structure (SMILES) | 5-HT3 ligand potency (full CRC) [3] [µM] | % inhibition at multiple off-targets in the Eurofin panel [4] [%] | EC50 [6] [µM] | EC50 [7] [µM] | SERT ligand potency (full CRC) [8] [µM] | CLHEP, human [9] [mL/min/kg] | Inhibition of CYP 2D6 (in words) [10] | DAT ligand potency (full CRC) [11] [µM] | Full dose response AHL, result in words [12] | CLHEP, rat [13] [mL/min/kg] | other results
CSc1ccc(CNC(=O)c2sc3nnc(C)c(C)c3c2N)cc1 [9a] |  |  |  |  |  |  |  |  |  |  | Fold increase in rat M4 PAM potency relative to 6 [1]: ~10 fold
Cc1nnc2sc(C(=O)NCc3ccc(S(=O)(=O)CF)cc3)c(N)c2c1C [9i] |  |  |  |  |  |  |  |  |  |  | Rat Kp (total brain:plasma partition coefficient) [2]: not detected in the CNS
Cc1nnc2sc(C(=O)NCc3ccc(S(=O)(=O)C(F)F)cc3)c(N)c2c1C [9j] | 1.6 | > 50 | > 30 | > 30 | 0.6 | 9.34 | weak inhibition | 0.175 | efficacious in vivo | 28.1 | hCav1 2 ligand potency (full CRC) [5]: 5.7 µM
Cc1nnc2sc(C(=O)NCc3ccc(S(F)(F)(F)(F)F)cc3)c(N)c2c1C [9l] | 1.5 | > 50 | > 30 | > 30 | 0.52 | 15.0 | weak inhibition | 0.15 | efficacious in vivo | 40.5 | GABA ligand potency (full CRC) [14]: 2.1 µM; Ghrelin receptor ligand potency (full CRC) [15]: 6.5 µM; BDZ ligand potency (full CRC) [16]: 1.5 µM
Cc1nnc2sc(C(=O)NCc3ccc(S(=O)(=O)C(F)(F)F)cc3)c(N)c2c1C [compound 5] |  |  | > 30 | > 30 |  | 10.2 |  |  |  | 28.4 | % reversal in AHL (previously reported) ([17]; 10 mg/kg p.o.): 46%; Minimum effective dose (MED) in AHL ([17]; p.o.): 3 mg/kg; % inhibition at any of the 68 targets in the Eurofin panel [4]: ≤ 50%
COc1ccc(CNC(=O)c2sc3nnc(C)c(C)c3c2N)cc1 [compound 6] |  |  |  |  |  |  |  |  |  |  | Fold enhancement of M4 PAM potency relative to 2 [18]: 4 fold; Fold increase of free fraction relative to 2 [19]: up to 9 fold
